# From US20240254117A1, “PYRIMIDO-HETEROCYCLIC COMPOUNDS, AND PREPARATION METHOD THEREFOR AND USE THEREOF” (SHANGHAI RINGENE BIOPHARMA CO., LTD., priority 2020, published 2024)
# Test system: pERK
# Assay: p-ERK level in PC9 cells (AlphaLISA SureFire Ultra p-ERK1/2)
# Assay type: cell-based
# Settings: Homo sapiens, PC-9, 1 h, read-out: SOS1 pERK IC50
# Description: PC9 cells were seeded in 384-well cell culture plate (40 μL/well) according to a certain concentration and placed in a cell culture incubator with 37° C. and 5% CO2 overnight. On the next day, the plate was added with serially diluted test compounds (5 concentrations, 3-fold dilution, the highest concentration was 10 uM) for 1 hour, and then the lysate containing protease and phosphatase inhibitor was added to lyse the cells-extracted proteins, cellular pERK levels were measured using the AlphaLISASureFire Ultra p ERK1/2 assay kit (PerkinElmer). The standard AlphaLISA settings on the Envision plate reader (PerkinElmer) was used to read the signal. Raw data were analyzed in Excel (Microsoft) and Prism (GraphPad). The signal was plotted against the common logarithm of compound concentration and IC50 was calculated by fitting a four parameter non-linear regression curve.
row,Structure (SMILES),IC50
1,"CC(=O)N1CCC(O)(c2cc3c(N[C@H](C)c4cc(N)cc(C(F)(F)F)c4)nc(C)nc3n3ccnc23)CC1 [Example 85, (R)-1-(4-(4-((1-(3-amino-5-(trifluoromethyl)phenyl)ethyl)amino)-2-methylimidazole [1′,2′:1,6]pyrido [2,3-d]pyrimidin-6-yl)-4-hydroxypiperidin-1-yl) ethyl-1-one]",< 1 µM
2,COC1(c2cc3c(N[C@H](C)c4cc(N)cc(C(F)(F)F)c4)nc(C)nc3n3ccnc23)CC2CCC(C1)N2C(=O)C(C)C (stereo partly shown) [Example 91],< 1 µM
3,COC1(c2cc3c(N[C@H](C)c4cc(N)cc(C(F)(F)F)c4)nc(C)nc3n3ccnc23)CC2CCC(C1)N2C (stereo partly shown) [Example 92],< 1 µM
4,COC1(c2cc3c(N[C@H](C)c4cc(N)cc(C(F)(F)F)c4)nc(C)nc3n3ccnc23)CC2CCC(C1)N2C(C)C (stereo partly shown) [Example 93],< 1 µM

# Same assay, conditions: Homo sapiens, PC-9; PC9 cells, 1 hour compound treatment; read-out: SOS1 pERK IC50
row,IC50,Structure (SMILES)
1,< 1 µM,COC1(c2cc3c(N[C@H](C)c4cc(N)cc(C(F)(F)F)c4)nc(C)nc3n3ccnc23)CCOCC1 [Example 75]
2,< 1 µM,COC1(c2cc3c(N[C@H](C)c4cc(N)cc(C(F)(F)F)c4)nc(C)nc3n3ccnc23)CCN(C(C)=O)CC1 [Example 76]
3,< 1 µM,COC1(c2cc3c(N[C@H](C)c4cc(N)cc(C(F)(F)F)c4)nc(C)nc3n3ccnc23)CCS(=O)(=O)CC1 [Example 77]
4,< 1 µM,Cc1nc(N[C@H](C)c2cc(N)cc(C(F)(F)F)c2)c2cc(C3(C#N)CCS(=O)(=O)CC3)c3nccn3c2n1 [Example 78]
5,< 1 µM,COC1(c2cc3c(N[C@H](C)c4cccc(C(F)(F)F)c4C)nc(C)nc3n3ccnc23)CCOCC1 [Example 79]
6,< 1 µM,Cc1nc(N[C@H](C)c2cccc(C(F)(F)F)c2C)c2cc(C3(C#N)CCS(=O)(=O)CC3)c3nccn3c2n1 [Example 80]
7,< 1 µM,COC1(c2cc3c(N[C@H](C)c4cc(N)cc(C(F)(F)F)c4)nc(C)nc3n3ccnc23)CCN(C(=O)C(C)C)CC1 [Example 89]
8,< 1 µM,Cc1nc(N[C@H](C)c2cc(N)cc(C(F)(F)F)c2)c2cc(C3(C#N)CCN(C(=O)C(C)C)CC3)c3nccn3c2n1 [Example 90]

row,Structure (SMILES),IC50
1,COC1(c2cc3c(N[C@H](C)c4cccc(C(F)(F)F)c4C)nc(C)nc3n3ccnc23)CCN(C(C)C)CC1 [Example 81],< 1 µM
